What was measured:
[1] = tested on: human cervical carcinoma cell line KB/HeLa (ATCC CCL17); experiment: XTT proliferation test, KB/HeLa; assay type: cell-based; settings: eight substance concentrations
Experimental: (§1) In a proliferation test, the antiproliferative activity of the substance D-69429 was examined using established tumor cell lines. In the test used, the cellular dehydrogenation activity is determined, which makes it possible to determine the vitality of the cell and, indirectly, the cell count. The cell lines used are the human cervical carcinoma cell line KB/HeLa (ATCC CCL17), the murine lymphocyte a leukaemia L1210 (ATCC CCL-219), the human breast adenocarcinoma line MCF7 (ATCC HTB22) and the ovary adenocarcinoma line SKOV-3 (ATCC HTB77). These are established cell lines which are very well characterized and were obtained from ATCC and cultured.
(§2) The adherently growing tumor cell lines HeLa/KB, SKOV-3 and MCF7 and the L1210 leukaemia line, which grows in suspension, were cultivated under standard conditions in an incubator with gas inlet at 37° C., 5% CO2 and 95% atmospheric humidity. […]
(§3) For the XTT assay, 1 mg/ml of XTT (sodium 3′-[1-(phenylaminocarbonyl)-3,4-tetrazolium]-bis(4-methoxy-6-nitro)benzenesulfonic acid) is dissolved in RPMI-1640 medium without Phenol Red. […] The cell plates are then incubated in the incubator with gas inlet for a further 3 h, and the optical density (OD490nm) is determined in a photometer.
(§4) Using the OD490nm obtained, the inhibition in percent relative to the control is calculated. […]

[2] = tested on: human breast adenocarcinoma line MCF7 (ATCC HTB22); experiment: XTT proliferation test, MCF7; assay type: cell-based
Experimental: as §1, §2, §3, §4

[3] = tested on: murine lymphocyte leukaemia L1210 (ATCC CCL-219); experiment: XTT proliferation test, L1210; assay type: cell-based; settings: L-1210, eight substance concentrations
Experimental: as §1, §2, §3, §4

[4] = tested on: ovary adenocarcinoma line SKOV-3 (ATCC HTB77); experiment: XTT proliferation test, SKOV-3; assay type: cell-based, human; settings: SKOV-3, eight substance concentrations
Experimental: as §1, §2, §3, §4

SMILES: Cc1ccc2cc(NC(=O)C(=O)c3cn(Cc4ccc(Cl)cc4)c4ccccc34)ccc2n1 [Example D-69429, N-(2-methyl-6-quinolyl)-[1-(4-chlorobenzyl)indole-3-yl]glyoxylamide]
- antiproliferative action [1]: highly potent antiproliferative action
- melting point: 182 to 185 °C
- inhibition at 3.16 µg/mL ([2]; MCF7, at 3.16 μg/ml, test period 48 h): 18%
- IC50 ([2]; MCF7, test period 48 h, regression analysis, read-out: antiproliferative activity (stated as >3.16)): > 3.16 µg/mL
- antiproliferative action [3]: highly potent antiproliferative action
- antiproliferative action [4]: highly potent antiproliferative action

From patent US8008324B2, “Indole derivatives and their use as medicament” (AEterna Zentaris GmbH, priority 2000, dated 2011)
